One assay deals with NADPH oxidase 3 (Homo sapiens, UniProt Q9HBY0). As to the kind of experiment: PubChem AID 435013.
For the next assay, the target named is NADPH oxidase 4 (Homo sapiens, UniProt Q9NPH5). As to the kind of experiment: PubChem AID 435013.
For the next assay, the target named is NADPH oxidase 2 (Homo sapiens, UniProt P04839). The experiment in a line: PubChem AID 435013.
Assay [1] has as its target T1, NADPH oxidase 1 (Homo sapiens, UniProt Q9Y5S8).
T1 sequence (Q9Y5S8 whole entry): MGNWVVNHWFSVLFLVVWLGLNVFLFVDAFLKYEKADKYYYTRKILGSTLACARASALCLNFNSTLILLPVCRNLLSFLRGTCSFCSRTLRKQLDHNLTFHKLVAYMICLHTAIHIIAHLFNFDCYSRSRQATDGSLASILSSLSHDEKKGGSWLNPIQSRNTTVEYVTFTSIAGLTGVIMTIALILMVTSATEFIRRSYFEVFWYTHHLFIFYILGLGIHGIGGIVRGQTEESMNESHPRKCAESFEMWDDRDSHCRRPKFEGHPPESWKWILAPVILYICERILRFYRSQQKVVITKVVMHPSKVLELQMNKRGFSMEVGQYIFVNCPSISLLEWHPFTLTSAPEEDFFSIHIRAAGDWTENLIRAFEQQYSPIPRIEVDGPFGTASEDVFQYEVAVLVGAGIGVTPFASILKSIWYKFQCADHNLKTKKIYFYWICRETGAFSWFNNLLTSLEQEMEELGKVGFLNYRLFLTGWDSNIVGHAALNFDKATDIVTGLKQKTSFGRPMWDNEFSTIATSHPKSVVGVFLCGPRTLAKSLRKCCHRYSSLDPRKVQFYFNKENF
As to the kind of experiment: HEK293 ROS counter-screen potency – cell-based, IC50, set 2, counter-screen for NOX1 inhibitor project, late-stage follow-up (AID 435002). It counts as functional.

Assay [2] has as its target T1, NADPH oxidase 1. As to the kind of experiment: potency of NOX1 inhibition in cells – cell-based, luminescence, cherry picks 2, dose response (AID 434997). Format: functional.
Assay [3] in a line: A cytotoxicity screen of small molecule inhibitors of the PhoP region in Salmonella typhi identified in the primary screen. [Related pubchem assays: 1850, 1864, 1985 ]. It counts as functional.
The next assay addresses Hexokinase-1 (Homo sapiens, UniProt P19367). As to the kind of experiment: HK1 enzyme activation by HKDC1 hits – biochemical, selectivity assay for HKDC1 activator project, dose response (AID 504762). It counts as functional.
The next assay addresses T2, Hexokinase HKDC1 (Homo sapiens, UniProt Q2TB90).
T2 sequence (Q2TB90 whole entry): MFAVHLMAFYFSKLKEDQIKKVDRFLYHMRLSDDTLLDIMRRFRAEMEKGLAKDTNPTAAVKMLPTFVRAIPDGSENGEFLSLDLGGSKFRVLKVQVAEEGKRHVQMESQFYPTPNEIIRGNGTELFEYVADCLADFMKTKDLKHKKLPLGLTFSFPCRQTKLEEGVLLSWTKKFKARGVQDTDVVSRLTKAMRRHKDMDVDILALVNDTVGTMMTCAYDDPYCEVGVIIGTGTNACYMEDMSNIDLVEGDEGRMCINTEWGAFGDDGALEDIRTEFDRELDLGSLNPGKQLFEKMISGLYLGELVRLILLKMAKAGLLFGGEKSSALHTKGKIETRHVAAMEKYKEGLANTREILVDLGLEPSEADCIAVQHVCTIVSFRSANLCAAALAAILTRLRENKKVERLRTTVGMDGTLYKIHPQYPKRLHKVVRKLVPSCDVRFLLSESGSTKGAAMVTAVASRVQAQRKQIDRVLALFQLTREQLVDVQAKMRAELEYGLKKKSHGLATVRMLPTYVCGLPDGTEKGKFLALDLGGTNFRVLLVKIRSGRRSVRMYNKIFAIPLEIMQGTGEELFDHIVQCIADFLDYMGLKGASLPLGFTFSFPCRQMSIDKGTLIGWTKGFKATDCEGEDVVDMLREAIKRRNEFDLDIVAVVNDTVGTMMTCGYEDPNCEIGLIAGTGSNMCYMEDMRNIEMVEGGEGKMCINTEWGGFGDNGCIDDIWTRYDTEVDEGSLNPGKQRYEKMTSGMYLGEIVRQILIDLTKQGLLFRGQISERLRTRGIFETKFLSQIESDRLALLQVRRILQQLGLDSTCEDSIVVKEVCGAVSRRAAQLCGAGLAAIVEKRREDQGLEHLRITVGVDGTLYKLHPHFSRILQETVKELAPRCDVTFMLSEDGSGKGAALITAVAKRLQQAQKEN
The experiment in a line: activation of HKDC1 glucose phosphorylation – biochemical, W721R variant, dose response (AID 504730). Format: functional.

Activity calls are given as the source filed them. Unless noted, no cut-off for these calls is given here.

In general, IC50 refers to the point on the concentration scale where inhibition reaches its midpoint. The term EC50 denotes the concentration giving half of the maximal effect.

NADPH oxidase 3, sequence (Q9HBY0 whole entry): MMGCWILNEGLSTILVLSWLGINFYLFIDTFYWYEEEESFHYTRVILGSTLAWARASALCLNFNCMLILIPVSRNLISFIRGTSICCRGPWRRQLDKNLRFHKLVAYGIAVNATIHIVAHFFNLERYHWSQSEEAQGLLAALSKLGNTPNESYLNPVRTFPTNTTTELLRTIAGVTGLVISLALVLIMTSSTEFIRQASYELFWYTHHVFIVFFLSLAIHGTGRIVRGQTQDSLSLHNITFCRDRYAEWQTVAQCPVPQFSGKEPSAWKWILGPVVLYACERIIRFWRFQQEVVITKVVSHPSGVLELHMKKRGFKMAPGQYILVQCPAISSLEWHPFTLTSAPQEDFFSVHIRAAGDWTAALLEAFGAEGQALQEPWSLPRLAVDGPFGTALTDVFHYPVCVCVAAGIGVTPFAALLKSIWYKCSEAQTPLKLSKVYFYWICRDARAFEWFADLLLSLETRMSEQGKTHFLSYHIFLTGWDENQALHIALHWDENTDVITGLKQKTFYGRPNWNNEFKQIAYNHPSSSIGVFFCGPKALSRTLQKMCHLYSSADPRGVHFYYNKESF
NADPH oxidase 2, sequence (P04839 whole entry): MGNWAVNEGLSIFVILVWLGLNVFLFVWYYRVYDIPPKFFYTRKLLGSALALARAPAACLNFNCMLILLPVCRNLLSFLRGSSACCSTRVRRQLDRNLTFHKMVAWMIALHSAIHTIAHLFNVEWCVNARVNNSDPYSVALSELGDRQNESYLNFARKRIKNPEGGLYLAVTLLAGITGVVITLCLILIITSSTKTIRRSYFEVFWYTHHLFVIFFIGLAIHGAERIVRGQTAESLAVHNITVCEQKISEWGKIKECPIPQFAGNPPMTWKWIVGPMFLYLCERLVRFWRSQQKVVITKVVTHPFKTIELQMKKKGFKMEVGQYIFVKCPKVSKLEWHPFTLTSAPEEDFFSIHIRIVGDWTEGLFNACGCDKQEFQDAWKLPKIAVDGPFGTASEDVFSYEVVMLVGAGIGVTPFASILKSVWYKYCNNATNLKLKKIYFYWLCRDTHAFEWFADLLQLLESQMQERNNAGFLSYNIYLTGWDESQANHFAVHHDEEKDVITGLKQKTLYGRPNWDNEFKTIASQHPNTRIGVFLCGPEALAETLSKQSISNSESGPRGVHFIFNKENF
Hexokinase-1, sequence (P19367 whole entry): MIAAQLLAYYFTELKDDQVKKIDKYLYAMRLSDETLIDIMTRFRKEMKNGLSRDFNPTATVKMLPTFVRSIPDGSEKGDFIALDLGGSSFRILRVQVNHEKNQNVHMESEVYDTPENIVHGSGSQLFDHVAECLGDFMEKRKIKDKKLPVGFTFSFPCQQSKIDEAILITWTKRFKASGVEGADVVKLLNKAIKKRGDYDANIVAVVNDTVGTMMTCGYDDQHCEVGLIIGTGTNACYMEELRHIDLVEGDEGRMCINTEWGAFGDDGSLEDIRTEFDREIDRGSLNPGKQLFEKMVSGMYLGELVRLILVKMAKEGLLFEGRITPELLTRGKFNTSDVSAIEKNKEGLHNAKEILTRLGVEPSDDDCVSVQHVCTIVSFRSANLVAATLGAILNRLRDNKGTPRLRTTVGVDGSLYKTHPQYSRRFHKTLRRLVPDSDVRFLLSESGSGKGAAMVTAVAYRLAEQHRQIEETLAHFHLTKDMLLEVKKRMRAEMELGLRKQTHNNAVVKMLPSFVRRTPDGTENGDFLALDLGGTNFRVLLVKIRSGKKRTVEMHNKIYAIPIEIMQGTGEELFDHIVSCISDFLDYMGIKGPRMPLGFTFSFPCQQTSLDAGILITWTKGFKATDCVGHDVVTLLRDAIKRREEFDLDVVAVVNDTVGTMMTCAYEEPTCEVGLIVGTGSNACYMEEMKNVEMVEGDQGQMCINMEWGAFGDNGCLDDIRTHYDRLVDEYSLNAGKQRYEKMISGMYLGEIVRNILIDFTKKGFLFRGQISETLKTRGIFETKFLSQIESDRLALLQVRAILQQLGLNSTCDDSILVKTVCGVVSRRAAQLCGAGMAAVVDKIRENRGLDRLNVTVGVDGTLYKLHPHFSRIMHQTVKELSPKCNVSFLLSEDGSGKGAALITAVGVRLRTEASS
NADPH oxidase 4, sequence (Q9NPH5 whole entry): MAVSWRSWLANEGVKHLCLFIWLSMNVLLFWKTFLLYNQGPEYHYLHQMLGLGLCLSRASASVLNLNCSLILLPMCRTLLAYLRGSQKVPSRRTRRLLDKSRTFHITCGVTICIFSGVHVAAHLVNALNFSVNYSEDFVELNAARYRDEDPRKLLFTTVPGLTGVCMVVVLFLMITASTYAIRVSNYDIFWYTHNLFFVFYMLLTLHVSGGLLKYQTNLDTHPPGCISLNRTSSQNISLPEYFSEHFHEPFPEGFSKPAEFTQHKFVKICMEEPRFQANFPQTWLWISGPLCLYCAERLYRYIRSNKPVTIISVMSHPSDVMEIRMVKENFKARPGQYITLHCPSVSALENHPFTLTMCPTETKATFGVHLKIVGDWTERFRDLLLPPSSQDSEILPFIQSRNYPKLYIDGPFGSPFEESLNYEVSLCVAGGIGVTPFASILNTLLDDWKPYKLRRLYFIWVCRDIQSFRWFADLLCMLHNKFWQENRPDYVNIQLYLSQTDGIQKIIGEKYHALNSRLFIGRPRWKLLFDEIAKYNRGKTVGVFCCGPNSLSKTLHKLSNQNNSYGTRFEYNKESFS

Consider `CN(C)c1ccc(/C=N/Nc2c(Cl)cncc2Cl)cc1`, for which the IC50 at NADPH oxidase 3 is 20 µM (inactive); at NADPH oxidase 4, 9 µM (active); at NADPH oxidase 2 it was > 10 µM (inactive); at NADPH oxidase 1 [1] it was 4 µM (active); at NADPH oxidase 1 [2] it was 0.44 µM (active).

With `Nc1nc(N2CCN(c3ccccn3)CC2)nc2ccccc12`, the EC50 in assay [3] was > 50 µM (active); at Hexokinase-1, 32.2 µM (inactive); on Hexokinase HKDC1, 25.4 µM (inactive).

Source of the values: ChEMBL document CHEMBL1201862, “PubChem BioAssay data set” (2004).
